For assay [1], the target named is T1, Human recombinant C-ter-His-FLAG-HDAC1 (Homo sapiens, UniProt Q13547).
T1 construct: His (C); FLAG (C); purchased BPS Bioscience 50051
Description: HDAC-Glo I/II enzyme assay, HDAC1. It counts as biochemical. As to conditions: ± standard error, three independent measurements.

The next assay has as its target T2, HDAC-3/NcoR2 (Homo sapiens, UniProt O15379).
T2 construct: purchased BPS Bioscience 50003
Description: HDAC-Glo I/II enzyme assay, HDAC3. It counts as biochemical. The conditions noted are these: ± standard error, three independent measurements.

The next assay concerns the target T3, C-terminal His-tag-HDAC8 (Homo sapiens, UniProt Q9BY41).
T3 construct: His (C); purchased BPS Bioscience 50008
T3 sequence (Q9BY41 1-377): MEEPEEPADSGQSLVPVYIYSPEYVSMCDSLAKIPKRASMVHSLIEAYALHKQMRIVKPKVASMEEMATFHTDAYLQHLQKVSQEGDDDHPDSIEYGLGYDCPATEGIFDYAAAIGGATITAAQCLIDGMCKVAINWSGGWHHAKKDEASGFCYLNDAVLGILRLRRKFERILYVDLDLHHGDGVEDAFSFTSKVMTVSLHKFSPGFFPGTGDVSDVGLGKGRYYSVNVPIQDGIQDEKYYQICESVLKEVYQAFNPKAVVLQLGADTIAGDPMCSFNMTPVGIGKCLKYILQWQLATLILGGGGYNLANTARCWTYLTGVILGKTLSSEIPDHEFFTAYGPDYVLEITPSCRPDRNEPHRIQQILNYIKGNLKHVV
Description: HDAC-Glo I/II enzyme assay, HDAC8. It counts as biochemical. As to conditions: ± standard error, three independent measurements.

A further assay concerns the target T4, HDAC6 (Homo sapiens, UniProt Q9UBN7).
T4 construct: endogenous in cells; host or cells: THP-1
T4 sequence (Q9UBN7 1-1215): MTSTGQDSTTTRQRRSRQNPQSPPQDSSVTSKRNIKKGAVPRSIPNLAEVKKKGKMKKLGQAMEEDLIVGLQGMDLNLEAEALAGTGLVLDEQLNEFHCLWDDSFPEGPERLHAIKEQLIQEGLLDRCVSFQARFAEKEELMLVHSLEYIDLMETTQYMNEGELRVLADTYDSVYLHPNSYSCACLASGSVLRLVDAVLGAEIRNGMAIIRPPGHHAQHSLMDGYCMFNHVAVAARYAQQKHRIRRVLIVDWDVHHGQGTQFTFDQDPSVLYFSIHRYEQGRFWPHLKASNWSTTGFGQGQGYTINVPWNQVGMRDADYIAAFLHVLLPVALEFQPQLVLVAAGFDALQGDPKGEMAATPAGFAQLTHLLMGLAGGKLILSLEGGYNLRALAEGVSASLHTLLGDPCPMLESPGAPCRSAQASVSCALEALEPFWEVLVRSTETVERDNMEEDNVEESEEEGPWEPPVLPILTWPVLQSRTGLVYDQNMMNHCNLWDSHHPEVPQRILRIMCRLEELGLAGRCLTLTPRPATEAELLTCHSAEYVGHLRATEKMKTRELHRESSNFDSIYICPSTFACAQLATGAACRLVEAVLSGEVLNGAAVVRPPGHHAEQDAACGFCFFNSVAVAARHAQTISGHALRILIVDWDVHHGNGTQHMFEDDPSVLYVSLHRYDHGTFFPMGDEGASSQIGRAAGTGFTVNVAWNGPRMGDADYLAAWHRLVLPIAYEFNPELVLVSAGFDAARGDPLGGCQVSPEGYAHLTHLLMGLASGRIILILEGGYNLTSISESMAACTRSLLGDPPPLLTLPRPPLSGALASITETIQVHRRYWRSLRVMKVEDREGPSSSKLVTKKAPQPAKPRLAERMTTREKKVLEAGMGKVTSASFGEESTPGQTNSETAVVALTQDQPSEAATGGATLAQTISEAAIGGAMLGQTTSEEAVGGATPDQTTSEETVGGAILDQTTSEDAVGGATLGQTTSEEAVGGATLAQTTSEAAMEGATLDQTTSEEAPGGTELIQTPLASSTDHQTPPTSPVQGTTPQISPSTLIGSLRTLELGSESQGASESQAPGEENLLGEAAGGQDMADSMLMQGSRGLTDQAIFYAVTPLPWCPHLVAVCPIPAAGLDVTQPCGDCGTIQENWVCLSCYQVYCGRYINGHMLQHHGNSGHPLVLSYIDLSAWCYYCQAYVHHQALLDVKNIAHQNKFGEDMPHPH
Description: Cellular thermal shift assay (CETSA), HDAC6. It counts as cell-based. The conditions noted are these: THP-1 cells, 1 h; 4 μM (methods, Figure 2), Figure S14 legend 500 nM. On the procedure:
THP-1 cells, 1 × 10^7 cells at a density of 1 × 10^6 cells/mL, were treated with 4 μM of test compounds (1 h, 37 °C, 5% CO2). Cells were centrifuged, and the pellet was resuspended with 1 × Phosphate Buffer Saline (Gibco, Grand Island, NY, USA, #10010023) containing 1 × Protease Inhibitor Cocktail (Cell Signaling Technology, Beverly, MA, USA, #5871) and 1 mM phenylmethylsulfonyl fluoride (PMSF, Sigma Aldrich, St. Louis, MO, USA, #10837091001). The suspension volume was divided equally and heated for 3 min at 43–64 °C in a T100 Thermal Cycler (Bio-rad, Hercules, CA, USA). For protein extraction, cells were snap-frozen using liquid nitrogen, thawed twice (25 °C, 1 min), then centrifuged (20,000× g, 15 min, 4 °C). Following centrifugation, protein containing supernatants were denatured at 70 °C for 10 min and loaded on SDS-PAGE gels (Bio-Rad, Hercules, CA, USA, 161-0317). After electrophoresis (100 V and 60 min), proteins were transferred onto PVDF membrane (Bio-Rad #1620177) at 200 mA for 180 min and immunoblotted with primary antibodies (1:10,000 dilution for anti-LSD1 Antibody ab129195 [EPR6825], 1:1000 dilution for Anti-HDAC6 Antibody CST 7558, 1:1000 dilution for Anti-HDAC1 Antibody ab53091, 1:1000 dilution for Anti-HDAC8 Antibody ab187139, 1:5000 dilution for Anti-beta Actin Antibody ab8227) overnight at 4 °C. The next day, membranes were incubated with HRP-conjugated secondary antibodies (1:5000 dilution for Abcam, Cambridge, UK, ab205718) for 1 h at room temperature. The signal was detected with BIORAD Chemi-Doc XRS+ System and by using Immobilon Forte Western HRP Substrate (WBLUF0500).

Usually IC50 stands for the point on the concentration scale where inhibition reaches its midpoint.

Structures are written as SMILES.

T2 sequence (O15379 whole entry): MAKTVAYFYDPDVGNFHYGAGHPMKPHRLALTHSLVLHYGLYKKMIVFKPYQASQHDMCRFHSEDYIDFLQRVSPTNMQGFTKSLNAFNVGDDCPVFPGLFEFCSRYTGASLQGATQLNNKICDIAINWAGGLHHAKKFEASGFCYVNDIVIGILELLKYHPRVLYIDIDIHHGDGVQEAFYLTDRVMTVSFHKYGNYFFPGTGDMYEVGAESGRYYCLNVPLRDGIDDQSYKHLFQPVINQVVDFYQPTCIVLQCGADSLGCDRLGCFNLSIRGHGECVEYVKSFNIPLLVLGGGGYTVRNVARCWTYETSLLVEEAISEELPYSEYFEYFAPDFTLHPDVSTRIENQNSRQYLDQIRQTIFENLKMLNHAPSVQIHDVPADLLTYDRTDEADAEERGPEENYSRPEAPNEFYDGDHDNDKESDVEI
T2 sequence (Q9Y618 395-489 partner limits assumed): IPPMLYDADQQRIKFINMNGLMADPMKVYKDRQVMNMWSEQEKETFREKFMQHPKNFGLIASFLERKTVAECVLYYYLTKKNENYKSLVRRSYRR
T1 sequence (Q13547 whole entry): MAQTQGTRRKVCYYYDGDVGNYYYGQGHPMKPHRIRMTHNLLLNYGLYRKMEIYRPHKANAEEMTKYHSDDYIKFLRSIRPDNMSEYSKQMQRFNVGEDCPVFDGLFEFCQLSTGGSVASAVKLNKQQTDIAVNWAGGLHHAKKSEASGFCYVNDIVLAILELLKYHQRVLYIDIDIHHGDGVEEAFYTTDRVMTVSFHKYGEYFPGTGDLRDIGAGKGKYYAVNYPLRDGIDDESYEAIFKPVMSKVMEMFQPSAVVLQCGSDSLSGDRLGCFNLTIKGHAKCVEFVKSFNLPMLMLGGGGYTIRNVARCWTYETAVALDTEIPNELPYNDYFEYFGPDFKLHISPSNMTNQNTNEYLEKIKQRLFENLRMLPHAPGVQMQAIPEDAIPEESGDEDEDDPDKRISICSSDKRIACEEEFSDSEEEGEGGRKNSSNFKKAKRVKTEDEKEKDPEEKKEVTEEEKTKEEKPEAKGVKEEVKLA

As to `O=C(NO)c1ccc(CN2CCC(CNC3(c4ccccc4)CC3)CC2)cc1` [iHDAC6], the IC50 in assay [1] is 7.57 ± 0.29 µM; at HDAC-3/NcoR2, 4.09 ± 0.26 µM; on C-terminal His-tag-HDAC8, 0.45 ± 0.07 µM. Moreover, the “thermal stabilization of HDAC6 (CETSA)” value on HDAC6 was “stabilized HDAC6 only”.

With `O=C(NO)c1ccc(CN2CCC(CN[C@@H]3C[C@H]3c3ccccc3)CC2)cc1` (relative stereo) [iDual], the half-maximal inhibitory concentration (IC50) in assay [1] stood at 5.31 ± 0.25 µM; against HDAC-3/NcoR2, 2.29 ± 0.14 µM; against C-terminal His-tag-HDAC8, 0.29 ± 0.04 µM. The “thermal stabilization of HDAC6 (CETSA)” value on HDAC6 is “increased thermal stability”.

These data come from article PMC9737972, “Dual LSD1 and HDAC6 Inhibition Induces Doxorubicin Sensitivity in Acute Myeloid Leukemia Cells” (Cancers, 2022).
